Results taken from patent US20260207623A1, “USE OF ESTETROL IN HEPATICALLY IMPAIRED PATIENTS” (ESTETRA SRL, priority 2022, published 2026).
Where “and” joins values, the source holds several entries; their conditions need not be identical. Equal entries are not always repeated. Entries after “also recorded” stand apart in the source; their conditions may differ.

Test system: female subjects with normal hepatic function, mild, moderate or severe hepatic impairment
Test: Safety and tolerability (TEAEs, clinical laboratory, vital signs, physical examination) after a single oral dose of 20 mg E4 monohydrate in the hepatic impairment study
Assay type: in vivo, human
Experimental: This was a Phase 1, multi-centre, open-label, PK, and safety study of a single oral dose of 20 mg E4 monohydrate in female subjects with normal hepatic function (Group 1), mild hepatic impairment (Group 2), moderate hepatic impairment (Group 3), and severe hepatic impairment (Group 4), as defined using the Child-Pugh classification at Screening.
Safety and tolerability assessments consisted of treatment-emergent AEs (TEAEs), clinical laboratory, vital signs, physical examination, and gynecological examination. Assessments were performed in accordance with Table 2 and Table 3 in Section 2.5.1.
AEs/TEAEs were recorded after signing of the ICF until completion of the follow up visit. Any clinically significant observations in results of clinical laboratory, vital signs, or physical examinations were recorded as AEs.
A TEAE is defined as any event not present prior to administration of the study drug or any event already present that worsens in either severity or frequency following exposure to the study drug.
The below listed tests were to be performed by the local laboratories at time points indicated in the Schedule of Assessments (Table 2).
Systolic and diastolic blood pressure and pulse were recorded after the subject had been resting for at least 5 minutes in the supine position at time points indicated in the Schedule of Assessments (Table 2). These assessments were made using an automated device. Body temperature and respiratory rate were measured subsequently.
A complete physical examination consisting of a review of all body systems was performed at time points indicated in the Schedule of Assessments (Table 2). A symptom-directed physical examination could be conducted at any time per Investigator's discretion.
2.6.2.2 Evaluation of Safety and Tolerability Safety and tolerability were assessed through TEAEs, clinical laboratory, vital signs, and physical examination findings, and any other parameter that was relevant for safety assessment.
A listing of all individual AEs is provided. Summary tables of TEAEs are presented by system organ class (SOC) based on the MedDRA terminology list (preferred terms): a table containing the number of subjects experiencing AEs by hepatic function, a table containing the number of subjects experiencing SAEs by hepatic function (if applicable), a table by hepatic function and relationship, and a table by hepatic function and severity.

[1] = Mild (N = 8), single oral dose 20 mg E4
[2] = Moderate (N = 8), single oral dose 20 mg E4
[3] = Normal (N = 8), single oral dose 20 mg E4
[4] = Severe (N = 8), single oral dose 20 mg E4
[5] = Total (N = 32), single oral dose 20 mg E4
[6] = all 32 subjects, single oral dose 20 mg E4
[7] = moderate hepatic impairment group

C[C@]12CC[C@@H]3c4ccc(O)cc4CC[C@H]3[C@@H]1[C@@H](O)[C@@H](O)[C@@H]2O [E4, 1,3,5 (10)-estratrien-3,15alpha, 16alpha, 17beta-tetrol]
Subjects by maximum relationship to study drug: Not related [1]: 2 (25.0) n (%) | Subjects by maximum relationship to study drug: Related [1]: 0 n (%) | Subjects with TEAEs by maximum severity: Mild [1]: 2 (25.0) n (%) | Subjects with TEAEs by maximum severity: Moderate [1]: 0 n (%) | Subjects with at least one AE [1]: 2 (25.0) n (%) | Subjects with at least one SAE [1]: 0 n (%) | Subjects with at least one TEAE [1]: 2 n (%) and 2 (25.0) n (%) | Subjects with at least one TEAE leading to study drug discontinuation [1]: 0 n (%) | Subjects by maximum relationship to study drug: Not related [2]: 3 (37.5) n (%) | Subjects by maximum relationship to study drug: Related [2]: 1 (12.5) n (%) | Subjects with TEAEs by maximum severity: Mild [2]: 3 (37.5) n (%) | Subjects with TEAEs by maximum severity: Moderate [2]: 1 (12.5) n (%) | Subjects with at least one AE [2]: 4 (50.0) n (%) | Subjects with at least one SAE [2]: 0 n (%) | Subjects with at least one TEAE [2]: 4 n (%) and 4 (50.0) n (%) | Subjects with at least one TEAE leading to study drug discontinuation [2]: 0 n (%) | Subjects by maximum relationship to study drug: Not related [3]: 2 (25.0) n (%) | Subjects by maximum relationship to study drug: Related [3]: 0 n (%) | Subjects with TEAEs by maximum severity: Mild [3]: 0 n (%) | Subjects with TEAEs by maximum severity: Moderate [3]: 2 (25.0) n (%) | Subjects with at least one AE [3]: 2 (25.0) n (%) | Subjects with at least one SAE [3]: 0 n (%) | Subjects with at least one TEAE [3]: 2 n (%) and 2 (25.0) n (%) | Subjects with at least one TEAE leading to study drug discontinuation [3]: 0 n (%) | Subjects by maximum relationship to study drug: Not related [4]: 1 (12.5) n (%) | Subjects by maximum relationship to study drug: Related [4]: 0 n (%) | Subjects with TEAEs by maximum severity: Mild [4]: 1 (12.5) n (%) | Subjects with TEAEs by maximum severity: Moderate [4]: 0 n (%) | Subjects with at least one AE [4]: 1 (12.5) n (%) | Subjects with at least one SAE [4]: 0 n (%) | Subjects with at least one TEAE [4]: 1 n (%) and 1 (12.5) n (%) | Subjects with at least one TEAE leading to study drug discontinuation [4]: 0 n (%) | Subjects by maximum relationship to study drug: Related [5]: 1 n (%) and 1 (3.1) n (%) | Subjects with TEAEs by maximum severity: Moderate [5]: 3 n (%) and 3 (9.4) n (%) | Subjects with at least one AE [5]: 9 (28.1) n (%) | Subjects with at least one SAE [5]: 0 n (%) | Subjects with at least one TEAE [5]: 9 n (%) and 9 (28.1) n (%) | Subjects with at least one TEAE leading to study drug discontinuation [5]: 0 n (%) | subjects reporting TEAE back pain [6]: 2 subjects | subjects reporting TEAE diarrhea [6]: 3 subjects | subjects reporting TEAE headache [6]: 2 subjects | subjects reporting TEAE hypertension [6]: 2 subjects | laboratory values, changes and shifts from baseline (hematology, clinical chemistry) (all hepatic function groups): did not show deviations or trends which would raise safety concerns | number of TEAEs considered of mild intensity (all subjects): Eleven | number of TEAEs considered of moderate intensity (all subjects): 4 TEAEs | blood pressure, pulse rate, respiratory rate, body temperature (changes from baseline): showed no trends or clinically relevant changes | number of TEAEs considered related to the study drug (diarrhea, mild intensity, 1 subject in the moderate group): 1 TEAE | subjects with TEAE hypertension (mild hepatic impairment group): 2 subjects | subjects reporting TEAE diarrhea [7]: 2 subjects | subjects reporting TEAE headache [7]: 2 subjects | subjects reporting TEAE back pain (normal hepatic function group): 1 subjects | subjects reporting TEAE diarrhea (normal hepatic function group): 1 subjects | vital signs, laboratory values, physical examination (overall conclusion): unremarkable | subjects reporting TEAE back pain (severe hepatic impairment group): 1 subjects | deaths, SAEs, other significant AEs (whole study): no subjects with SAEs; also recorded: No deaths, SAEs, or other significant AEs occurred
